Values of other authors, collected in patent US20080279967A1, “Composition and method for increasing the metabolism of free fatty acids and facilitating a favorable blood lipid” (priority 2007, published 2008).

System: rats
Conditions: administration to rats

Which results are given for `C[N+](C)(C)CCCC(=O)[O-]` [γ-butyrobetaine, 4-trimethylamniobutyrate]?
nitric oxide concentrations in blood: increases; vasodilating activities: elevated
